Assay results published in patent US6596773B2, “Phenyl substituted pyridine and benzene derivatives” (Hoffmann-La Roche Inc., priority 1999, dated 2003).

Tested on: not given
Assay: not given
Details: not given

melting point | Structure (SMILES)
105 °C (dec.) | CN1CCN(c2cc(C(=O)c3ccccc3)c(C(=O)N(C)Cc3cc(C(F)(F)F)cc(C(F)(F)F)c3)cn2)CC1.Cl
145 °C (dec.) | CN1CCN(c2cc(C(=O)c3ccccc3Cl)c(C(=O)N(C)Cc3cc(C(F)(F)F)cc(C(F)(F)F)c3)cn2)CC1.Cl
89 to 91 °C | CN(C(=O)C(C)(C)c1cc(C(F)(F)F)cc(C(F)(F)F)c1)c1ccc(Cl)cc1C(=O)c1ccccc1 [Example 2, N-(2-Benzoyl-4-chloro-phenyl)-2-(3,5-bis-trifluoromethyl-phenyl)-N-methyl-isobutyramide]

Target: T1, human NK1 receptor (Homo sapiens, UniProt P25103)
T1 construct: expressed in transfected cells; host or cells: CHO cells infected using the Semliki virus expression system; membrane suspension
Assay: NK1 receptor binding assay, displacement of [3H]substance P
Details: human NK1 receptors in CHO cells (Semliki virus expression system), [3H]substance P 0.6 nM, 60 min at room temperature; read-out: affinity to the NK-1 receptor, given as pKi (converted)
Description: The affinity of test compounds for the NK1 receptor was evaluated at human NK1 receptors in CHO cells infected with the human NK1 receptor (using the Semliki virus expression system) and radiolabelled with [3H]substance P (final concentration 0.6 nM). Binding assays were performed in HEPES buffer (50 mM, pH 7.4) containing BSA (0.04%) leupeptin ([…]), MnCl2 (3 mM) and phosphoramidon ([…]). Binding assays consisted of […] of membrane suspension (1.25×10^5 cells/assay tube), 0.125 ml of buffer of displacing agent and […] of [3H]substance P. Displacement curves were determined with at least seven concentrations of the compound. The assay tubes were incubated for 60 min at room temperature after which time the tube contents were rapidly filtered under vacuum through GF/C filters presoaked for 60 min with PEI (0.3%) with 2×2 ml washed of HEPES buffer (50 mM, pH 7.4). The radioactivity retained on the filters was measured by scintillation counting. All assays were performed in triplicate in at least 2 separate experiments.

T1 sequence (P25103 whole entry): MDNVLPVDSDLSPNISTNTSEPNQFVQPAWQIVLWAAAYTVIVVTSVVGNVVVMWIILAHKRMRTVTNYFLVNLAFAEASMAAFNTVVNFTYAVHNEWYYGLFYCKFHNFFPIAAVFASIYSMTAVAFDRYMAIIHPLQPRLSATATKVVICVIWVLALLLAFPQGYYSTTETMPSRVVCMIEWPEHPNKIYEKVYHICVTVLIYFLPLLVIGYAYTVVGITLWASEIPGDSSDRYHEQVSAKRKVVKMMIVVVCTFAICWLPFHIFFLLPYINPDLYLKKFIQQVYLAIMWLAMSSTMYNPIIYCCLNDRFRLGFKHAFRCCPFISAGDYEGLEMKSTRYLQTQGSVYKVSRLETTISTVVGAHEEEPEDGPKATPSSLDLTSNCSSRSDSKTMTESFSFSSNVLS

Ki | Structure (SMILES)
13.8 nM | CN(Cc1cc(C(F)(F)F)cc(C(F)(F)F)c1)C(=O)c1cnc(N2CCOCC2)cc1Oc1ccccc1 [Example 28, N-(3,5-Bis-trifluoromethyl-benzyl)-N-methyl-6-morpholin-4-yl-4-phenoxy-nicotinamide]
1.74 nM | CN(Cc1cc(C(F)(F)F)cc(C(F)(F)F)c1)C(=O)c1cnc(N2CCOCC2)cc1Oc1ccccc1Cl [Example 29, N-(3,5-Bis-trifluoromethyl-benzyl)-4-(2-chloro-phenoxy)-N-methyl-6-morpholin-4-yl-nicotinamide]
3.8 nM | CN1CCN(c2cc(Oc3ccccc3Cl)c(C(=O)N(C)Cc3cc(C(F)(F)F)cc(C(F)(F)F)c3)cn2)CC1 [Example 30, N-(3,5-Bis-trifluoromethyl-benzyl)-4-(2-chloro-phenoxy)-N-methyl-6-(4-methyl-piperazin-1-yl)-nicotinamide]
2.75 nM | Cc1ccccc1Oc1cc(N2CCOCC2)ncc1C(=O)N(C)Cc1cc(C(F)(F)F)cc(C(F)(F)F)c1 [Example 31, N-(3,5-Bis-trifluoromethyl-benzyl)-N-methyl-6-morpholin-4-yl-4-o-tolyloxy-nicotinamide]
